Consider 5 compounds from patent US20260083698A1, “Synergistic Stimulation of Mucociliary Clearance to Treat Mucus Obstruction in Cystic Fibrosis and Other Muco-Obstructive Disorders” (The Board of Trustees of the Leland Stanford Junior …, priority 2022, published 2026).

In experiment [1] the test system is sheep with induced CF airway disease. The experiment can be described thus: Tracheal mucus velocity (TMV) in sheep CF model (CFTRinh172 + hNE). Type of experiment: in vivo. To be noted: inhalation, 20 μg Formoterol.
Description: Briefly, adult sheep are placed in an upright position in a specialized body harness and under local anesthesia the animals are nasally intubated with a standard endotracheal (ET) tube. Tracheal mucus velocity (TMV), the in vivo equivalent of MCCV, is measured by a fluoroscopic technique. Five to seven radiopaque Teflon/bismuth trioxide disks (1 mm in diameter, 0.8-mm in thickness, and 1.8 mg in weight) are insufflated into the mid-portion of the animal's trachea. Once the disks are delivered into the trachea, the cephalad-axial velocity of each individual disk is recorded on videotape from a portable image intensifier unit in-line with the fluoroscope. The mean value of all the disk velocities is calculated for a given time point, with new disks insufflated pat subsequent time points. After baseline values are determined, animals receive by aerosolization 10 mg of CFTRinh172 and TMV measurements are repeated hourly for the following 2 hours. Then the animals receive by aerosolization 1190 mU of human Neutrophil Elastase (hNE) and TMV measurements are repeated hourly for the following 2 hours. […] Methacholine alone was not tested as this will induce severe bronchospasm and compromise the life of the animal. After test agent administration by inhalation, the TMV was measured hourly for 12 hours and at 24 hours.
The test system of experiment [2] is ex vivo WT pig tracheas. The experiment can be described thus: ASL height by synchrotron-based phase contrast imaging. Particulars: 10 μM formoterol (T30-T50); synergy agonists (T65-T85). The protocol: ASL heights were determined in pig tracheal preparations using synchrotron-based phase contrast imaging (PCI). The synchrotron beamline produces enough parallel spatial coherence X-ray to increase the contrast between airway lumen and ASL layer by PCI. When X-rays pass through the intact tracheal preparation, the difference in refractive index between ASL and airway lumen results in a phase shift of X-rays that causes a distinctive interference pattern shown on the charge-coupled device (CCD) detector as variations in X-ray intensity.

Experiment [3] deals with WT piglet tracheas. The experiment can be described thus: Mucociliary clearance velocity (MCCV) in ex vivo WT piglet tracheas. On the set-up: species or system pig. The protocol:
MCCV in tracheas was measured from 2 to 5 days old WT piglets (see “Methods” section for details). […] The 8 piglet tracheas were divided into two groups and tested 4 by applying forskolin first and 4 by applying carbachol first, followed by the combined agonists.
These experiments used forskolin to elevate cAMP.
Pig tissues. Newborn WT piglet tracheas (2-5 days old) were directly obtained at the swine facility of UC Davis or from the laboratory of David Stoltz, University of Iowa, via overnight priority express. Postmortem (<1 h) tracheas from young adult Yorkshire pigs (30-50 kg) and 5-12 months old M. putorius ferrets were from animal facilities at Stanford and Gilroy/CA. All methods using animal tracheae were carried out in accordance with relevant guidelines and regulations of Stanford University and animal protocols were approved (Stanford IACUC protocol#: 10,048). Piglet tracheas were shipped in DMEM cell culture medium, other animal tissues were transported to the laboratory in cold PhysioSol™ solution (Hospira, IL/USA) and then transferred to icecold Krebs Ringer bicarbonate (KRB) buffer gassed with 95% O2 and 5% CO2 and kept at 4° C. until use. The KRB buffer contained (in mM): 115 NaCl, 25 NaHCO3, 2.4 K2HPO4, 0.4 KH2PO4, 1.2 MgCl2, 1.2 CaCl2, 10 glucose, and 1.0 μM indomethacin, adjusted to pH 7.2 and ˜290 mOsm at room temperature.
MCCV measurement. Details are in the previous reports (16,59,60). Briefly, each whole length ferret or piglet trachea, or a CF tracheal trim, was cut open along the mid-dorsal line and mounted mucosal side up onto a Sylgard elastomer platform. […] The prepared trachea was placed into a sealed, humidified chamber bubbled continuously with gas (95%/5%-O2/CO2) with the serosal surface bathed with KRB buffer±drugs. […] Then excess apical solution was drained, and tissue was incubated for an additional 10 min before starting baseline measurements of MCCV. Drugs were added by bath replacement with pre-warmed bath+drug(s). Summary MCCV data are reported as a single number and based on the averaged MCCV during the last 20 min of the treatment period unless stated otherwise.
MCCV (all values are in mm/min) was then measured for 90-120 min and plotted as MCCV vs time and agonist(s) in FIG. 8.
It was hypothesized that the synergistic MCC induced by β-adrenergic and cholinergic agonists involved ENaC inhibition.

The test system of experiment [4] is piglet tracheal rings. The experiment can be described thus: Airway narrowing: lumen area of thin sliced tracheal rings, methacholine. More on the design: species or system pig. Particulars: 0.3 or 0.6 mM methacholine alone.
Description: Airway smooth muscle contraction measurement. Two methods were used to measure tracheal smooth muscle contraction. One is designed to measure airway narrowing using thin sliced tracheal rings. Piglet or ferret tracheal ring preparations of ˜2 mm were submerged and securely pinned on a Sylgard-lined Petri dish filled with KRB solution at 37° C. and pH 7.4. Digital images of tracheal ring contractions in response to agonists for 1-10 min intervals were recorded with a Nikon digital camera and the inner lumen surface area of the tracheal ring was calculated using ImageJ (NIH, MD/USA). The other method is using a force transducer. One end of an isolated ferret trachealis muscle bundle was secured in a Sylgard-lined Petri dish filled with KRB solution and the other end was attached by 26-gauge wire to a previously calibrated strain gauge (series 400A force transducer system, Cambridge Technology, MA/USA).
The test system of experiment [5] is pig tracheal mucosa. Briefly: Short circuit current (Isc) and conductance, Ussing chamber, pig. To be noted: pig tracheal mucosa; sequential 10 μM forskolin, 0.3 μM carbachol, 10 μM benzamil, 20 μM BPO-27, 200 μM niflumic acid. The source says:
FIG. 4. Combined agonists inhibit sodium absorption and stimulate anion secretion by surface epithelia. (A) Cartoon of two electrogenic, ion transport pathways across airway apical epithelium: anion secretion increases surface fluid, Na+ absorption decreases surface fluid. The two pathways have opposite effects on fluid depth, but additive effects on short circuit current (Isc) because of their opposite valence and transport directions. (B) Raw trace of Isc across pig tracheal epithelium using Chart 4 software. After reaching a stable, unstimulated Isc (here, >2 h post-mounting), 10 μM forskolin, 0.3 μM carbachol, 10 μM benzamil, 20 μM benzopyrimido-pyrrolo-oxazinedione (BPO-27) and 200 μM niflumic acid were sequentially added at times shown. (C, D) Pig tracheal mucosa: averaged Δ Isc plots over time in response to (C) forskolin alone followed by forskolin+carbachol and (D) reversed order of agonist addition. (E & F) Ferret tracheal mucosa: averaged A Isc plots with same protocol as for pigs. Pig traces (C, D) are based on 10-12 experiments with tissues from 6 to 7 pigs. Ferret traces (E, F) are from 7 experiments with tissues from 5 ferrets.
Combined agonists stimulate epithelial surface anion secretion and inhibit Na^+ absorption. The surface epithelia also modify ASL. FIG. 4A is a cartoon of the main ion flows controlling ASL depth: anion-mediated fluid secretion increases, and Na^+-mediated fluid absorption decreases ASL depth. It was hypothesized that the combined agonists increase ASL depth and thus MCCV by stimulating secretion and inhibiting absorption (see also FIG. 6). […] With no counterbalancing absorption ASL depth is predicted to increase (dotted gold line in FIG. 6A) unless MCCV increases.
Inhibiting Na+ absorption would increase net fluid accumulation on the surface. […]
Electrophysiology. […] Total tissue conductance was calculated by applying Ohm's law to the Isc deflection resulting from a 1 mV pulse across the tissues every 20 s during the experiment. […]

Consider `COc1ccc(CC(C)NCC(O)c2ccc(O)c(NC=O)c2)cc1` (centres unmarked) [formoterol], for which the “effect on TMV compared to the control” value in experiment [1] was “barely had any effect”. Besides, in experiment [2], the “average rate of ASL height increase” value is reported as 1.7±0.1 μm/min.

For `CC(=O)OC(C)C[N+](C)(C)C` (centres unmarked) [methacholine], the “effect on MCCV” value in experiment [3] (piglet tracheas, 10 μM formoterol or 0.3 μM methacholine alone) is reported as “only a small increase”. Also, in experiment [4], the “sustained reduction of lumen area” value was 20-40%. As for `O=C(O)c1cccnc1Nc1cccc(C(F)(F)F)c1` [niflumic acid], the “effect on Isc, raw trace” value in experiment [5] is “steep drops in Isc and conductance”. On to `NC(=NCc1ccccc1)NC(=O)c1nc(Cl)c(N)nc1N` [benzamil], for which the “increase of baseline MCCV by ENaC inhibition” value in experiment [3] (10 μM benzamil vs without benzamil, piglets) is approximately 6 times. Besides, in experiment [3] (10 μM benzamil, no agonists, piglets), the “baseline MCCV with benzamil” value came out at 3.0±0.7 mm/min.

Regarding `Cn1c(=O)c2c(-c3ccccc3)n3c(c2n(C)c1=O)C(c1ccc(Br)o1)Oc1ccc(C(=O)O)cc1-3` (centres unmarked) [BPO-27, benzopyrimido-pyrrolo-oxazinedione], in experiment [5], the “effect on Isc, raw trace” value was “steep drops in Isc and conductance”.
